US12595239B2, “Substituted isoxazoline derivatives” (BASF SE, priority 2021, dated 2026)

Key:
Format in all cases: in vivo
[1] = test system: Plutella xylostella; assay: B.6 Diamond Back Moth, cabbage leaf disc dip test; details: foliar, 3rd instar larvae, 72 hours after treatment, read-out: mortality in comparison with untreated controls
Description: The active compound was dissolved at the desired concentration in a mixture of 1:1 (vol:vol) distilled water:acetone. Surfactant (Kinetic) was added at a rate of 0.01% (vol/vol). The test solution was prepared at the day of use. Cabbage leaf discs (60 mm in diameter) were dipped in test solution and air-dried. Treated leaves were placed in petri dishes lined with moistened filter paper and inoculated with ten 3rd instar larvae. Mortality was recorded 72 hours after treatment. Feeding damages were also recorded using a scale of 0-100%.

[2] = test system: Trialeurodes vaporarirorum; assay: B.2 Greenhouse Whitefly, microtiter plate eggplant leaf disk test; details: foliar, 144 h, mortality of hatched crawlers, 6 days, read-out: mortality in comparison with untreated controls
Description: For evaluating control of Greenhouse Whitefly, the test unit consisted of 96-well-microtiter plates containing a leaf disk of eggplant leaf disk with Whitefly eggs. The compounds or mixtures were formulated using a solution containing 75% water and 25% DMSO. Different concentrations of formulated were sprayed onto the insect diet at 2.5 μl, using a custom-built micro atomizer, at two replications. After application, microtiter plates were incubated at 23±1° C., 65±5% RH for 6 days. Mortality of hatched crawlers was then visually assessed.

[3] = test system: Spodoptera eridania; assay: B.11 Southern Armyworm 2nd instar larvae, lima bean foliar spray test; details: 96 h, 4 days after treatment, read-out: mortality in comparison with untreated controls
Description: The active compounds were formulated by a Tecan liquid handler in 100% cyclohexanone as a 10′000 ppm solution supplied in tubes. The 10′000 ppm solution was serially diluted in 100% cyclohexanone to make interim solutions. These served as stock solutions for which final dilutions were made by the Tecan in 50% acetone:50% water (v/v) into 10 or 20 ml glass vials. A nonionic surfactant (Kinetic®) was included in the solution at a volume of 0.01% (v/v). The vials were then inserted into an automated electrostatic sprayer equipped with an atomizing nozzle for application to plants/insects. Lima bean plants (variety Sieva) were grown 2 plants to a pot and selected for treatment at the 1st true leaf stage. Test solutions were sprayed onto the foliage by an automated electrostatic plant sprayer equipped with an atomizing spray nozzle. The plants were dried in the sprayer fume hood and then removed from the sprayer. Each pot was placed into perforated plastic bags with a zip closure. Ten to 11 armyworm larvae were placed into the bag and the bags zipped closed. Test plants were maintained in a growth room at about 25° C. and about 20-40% relative humidity for 4 days, avoiding direct exposure to fluorescent light (14:10 light:dark photo-period) to prevent trapping of heat inside the bags. Mortality and reduced feeding were assessed 4 days after treatment, compared to untreated control plants.

[4] = test system: Dichromothrips corbetti; assay: B.7 Orchid Thrips, floral-immersion test; details: adult thrips, 72 hours after treatment, read-out: mortality in comparison with untreated controls
Description: Dichromothrips corbetti adults used for bioassay were obtained from a colony maintained continuously under laboratory conditions. For testing purposes, the test compound was diluted in a 1:1 mixture of acetone:water (vol:vol), plus Kinetic at a rate of 0.01% v/v.
Thrips potency of each compound was evaluated by using a floral-immersion technique. Each orchid petal was dipped into treatment solution and allowed to dry in Petri dishes. Treated petals were placed into individual re-sealable plastic along with about 20 adult thrips. All test arenas were held under dark condition and a temperature of about 28° C. for duration of the assay. The percent mortality was recorded 72 hours after treatment.

[5] = test system: Nezara viridula; assay: B.8 Green Soldier Stink Bug, soybean pod spray test; details: 120 h, late 3rd instar, after 5 days, read-out: mortality in comparison with untreated controls
Description: The active compound was dissolved at the desired concentration in a mixture of 1:1 (vol:vol) distilled water:aceteone. Surfactant (Kinetic) was added at a rate of 0.01% (vol/vol). The test solution was prepared at the day of use. Soybean pods were placed in 90×50 mm glass Petri dishes lined with moistened filter paper and inoculated with ten late 3rd instar N. viridula. Using a hand atomizer, an approximately 2 ml solution was sprayed into each Petri dish. Treated setup was kept at about 25-26° C. and relative humidity of about 65-70%. Percent mortality was recorded after 5 days.

O=C(Nc1ccc(F)cc1F)c1cc(NC2=NOC(c3cccc(C(F)(F)F)c3)(C(F)(F)F)C2)ccc1Cl (centres unmarked) [I-38, 2-chloro-N-(2,4-difluorophenyl)-5-[[5-(trifluoromethyl)-5-[3-(trifluoromethyl)phenyl]-4H-isoxazol-3-yl]amino]benzamide]
≥ 75%: mortality at 300 ppm [1] | mortality at 2500 ppm [2] | mortality at 300 ppm [3] | mortality at 300 ppm [4] | mortality at 300 ppm [5]
